Tests used:
zebrafish (Danio rerio) = experiment: PTZ-induced neurotoxicity model in zebrafish larvae, AChE activity; assay type: in vivo; settings: 5 dpf larvae, 10 μM, 1 h pre-treatment then 6 h with 5 mM PTZ
Experimental: The objective of this assay was to analyze the protective effect of various derivatives of resveratrol in a model of neurotoxicity induced by the neurotoxin pentylenetetrazole (PTZ). As an experimental model, the zebrafish (Danio rerio) was used to study the effect of the compounds on acetylcholinesterase activity (AChE) in larvae at 5 days post-fertilization (dpf).
Zebrafish embryos were seeded in 50 ml of dilution water (AD) in a Petri dish and grown to 5 dpf (larval stage). […] Next, the larvae were transferred using a Pasteur pipette to a 24-well microplate, so that each well contained five larvae, making ten replicates per condition. First, the pre-treatment of the 5 dpf larvae was performed. For this, the larvae were incubated at 26±1° C. for 1 hour in a volume of 2 ml of AD for the two control groups (Control and Control+PTZ), of physostigmine (Phys) 20 μM, which is a commercial inhibitor of the enzyme AChE for the Phys group, and of the test compounds at a concentration of 10 μM. A medium exchange was then carried out, and the larvae were incubated with the compounds in combination with 5 mM PTZ for 6 hours at 26±1° C. After this incubation period, all of the larvae were examined, and it was determined that the general state of the larvae was totally normal, without any visible anomaly or anomalous behavior. Finally, the larvae were processed for the analysis of the AChE activity.
In order to determine the AChE levels, larvae processing was carried out according to the established technical study protocol once the experimental period was completed. The larvae were homogenized mechanically, and the samples were centrifuged to obtain the supernatant, which were used to determine the levels of the AChE enzyme as a function of the treatments administered. In addition, the determination of total protein of each experimental group was carried out according to the established technical study protocol. Finally, the AChE levels determined in the control group were taken as a reference measurement and deemed to be 100%.

[1] = test system: mouse model of Huntington's disease; experiment: 3-nitro-propionic acid (3NP) mouse model of Huntington's disease; assay type: in vivo; settings: 3NP mice
Experimental: Compound 15 was investigated as a possible treatment in a mouse model of Huntington's disease. The compound resveratrol (RES) was added as a reference.
In this model, increasing amounts of 3-nitro-propionic acid (3NP) are injected into the mice, causing lesions with a phenotype very similar to that of Huntington's disease, both mechanically and pathologically. Once the damage was caused, the mice were treated with RES, compound 15, or vehicle, and we studied the effect thereof on the mouse on the basis of different parameters. Behavioral studies (rotarod test), an assessment was made of motor capacity (tabulated on a scale of 0 normal to 4 incapable, in several parameters such as general mouse dystonia, ability to flip over, and the ability to explore), weight was monitored, and subsequent measurements were taken such as of the inhibition of pro-inflammatory cytokines in plasma or brain.
The design of the experiment is shown in FIG. 16. #=Behavioral study and rotarod test; ϕ Administration of the compound; W=weeks of age of the mice; D=Day of the experiment.

[2] = test system: mouse model of multiple sclerosis; experiment: Experimental allergic encephalomyelitis (EAE) mouse model of multiple sclerosis; assay type: in vivo; settings: for motor capacity: preventive regimen, 20 mg/kg intraperitoneal twice a week for 3 weeks from day 5 after induction; for clinical classification of the motor capacity: 20 mg/kg intraperitoneal twice a week for 2 weeks from day 12 after induction, especially days 20-30
Experimental: Compound 15 was investigated as a possible treatment in a mouse model of multiple sclerosis. The compound resveratrol (RES) was added as a reference. An experimental allergic encephalomyelitis model, EAE, was used as an animal model of multiple sclerosis.
In this model, mice are injected with myelin oligodendrocyte glycoprotein (MOG, MOG35-55, is the 21 amino acid peptide corresponding to the sequence from positions 35 to 55 of the MOG glycoprotein) and virus pertussis (pertussis toxin, PTX) in order to induce the disease. Two days after induction, a new dose of the virus was given again, because some mice were not developing symptoms of EAE. Once the damage was caused, the mice were treated with RES, compound 15, or vehicle, and we studied the effect thereof on the mouse on the basis of different motor parameters on a scale from 0 normal to 4 incapable.
• Vehicle without tween-80 emulsifier (control EAE without T) • Vehicle with tween-80 emulsifier (EAE-T control) • Preventive RES (without tween-80 emulsifier) (RES-PREV) • Therapeutic RES (no tween-80 emulsifier) (RES-TERAP) • Preventive compound 15 (with tween-80 emulsifier) (compound 15-PREV) • Therapeutic compound 15 (with tween-80 emulsifier) (compound 15-TERAP)
(§1) The (intraperitoneal) administration of the compounds (resveratrol, compound 15, and vehicle, with or without tween-80) is started 5 days after induction. 250 μL of the compound in question (20 mg/kg) were injected twice a week and the treatment was maintained for 3 weeks. The treatment was then stopped, but the state of the mice was monitored for another 3 weeks (47 days total).
as §1, with “started 12” for “started 5”, “for 2” for “for 3”

RAW 264.7 macrophages = experiment: Inflammation assay: RAW macrophage viability after LPS (MTT); assay type: cell-based; settings: 10 μM, LPS 100 ng/ml, 24 h, 1% DMSO
Experimental: RAW 264.7 macrophages were cultured in P75 with high-glucose DMEM supplemented with penicillin/streptomycin and 10% inactivated fetal bovine serum.
The cell viability assays with RAW macrophages were prepared in 96-well plates by seeding 25,000 cells/well in a volume of 100 μL and incubating the cells for 4 h before the addition of the compounds. The compounds to be tested were dissolved in DMSO and added in three different concentrations (1, 10, and 100 μM) in order to determine their toxicity. The final percentage of DMSO in each well was adjusted to 1%. The cell viability was evaluated 24 h after the addition of the compounds by means of the MTT assay according to the manufacturer's method. Mean values and standard deviations were calculated from at least eight different measurements from several independent experiments.
For the testing of mitigation of damage caused by the addition of LPS, the RAW 264.7 macrophages were cultured according to the procedure described above. […] The cell viability was evaluated 24 h after the addition of the compounds by means of the MTT assay according to the manufacturer's method. Mean values and standard deviations were calculated from at least eight different measurements from several independent experiments.

[3] = test system: SH-SY5Y neuroblastoma cell line; experiment: Neuroprotection assay: SH-SY5Y viability after H2O2 damage (MTT); assay type: cell-based; settings: 10 μM, H2O2 100 μM, 24 h, 1% DMSO
Experimental: The SH-SY5Y neuroblastoma cell line was cultured in petri dishes pre-treated with collagen (100 ng/ml) with F12 medium supplemented with penicillin/streptomycin and 10% inactivated fetal bovine serum.
Cell viability assays with neurons were prepared in 96-well plates pre-treated with collagen by seeding 20,000 cells/well in a volume of 100 μL and incubating the cells for 24 h before the addition of the compounds. The compounds to be tested were dissolved in DMSO and added in three different concentrations (1, 10, and 100 μM) in order to determine their toxicity. The final percentage of DMSO in each well was adjusted to 1%. The cell viability was evaluated 24 h after the addition of the compounds by means of the MTT assay according to the manufacturer's method. Mean values and standard deviations were calculated from at least eight different measurements from several independent experiments.
For the neuroprotection assay, the neurons were cultured and seeded in the same manner as for the cell viability assay. […] The cell viability was evaluated 24 h after the addition of the compounds by means of the MTT assay according to the manufacturer's method. Mean values and standard deviations were calculated from at least eight different measurements from several independent experiments. […]

IL-6 = IL-6 in supernatant of LPS-stimulated RAW macrophages (ELISA); assay type: cell-based; settings: 10 μM, 24 h
Experimental: (§2) To determine the production of cytokines, 5×10^5 RAW 264.7 macrophages were seeded in 24-well plates (0.5 ml per well). The compounds to be tested were then added (10 μM), and the macrophages were either stimulated or not through the addition of LPS (1 μg/ml) to the culture medium. After 24 hours, the levels of IL-6 and TNF-α were measured in the supernatants by ELISA using the capture and biotinylated antibodies from BD PharMingen and PrepoTech following known protocols. The levels of NO in the supernatants at 24 hours were measured indirectly by determining the nitrite concentration in the medium using the Griess reagent according to established protocol. A minimum of two independent experiments and three replicates per experiment were performed for each measured value. The values are expressed as the mean±standard deviation.
(§3) In the previous assay, the levels of various inflammation parameters were measured (TNF-α, NO, and IL-6) by ELISA after treatment with RES or with some of the compounds of the invention (2, 3, 5, 6, 8, and 9).

TNF-α = TNF-α in supernatant of LPS-stimulated RAW macrophages (ELISA); assay type: cell-based; settings: 10 μM, 24 h
Experimental: as §2, §3

NO = NO (nitrite, Griess reagent) in supernatant of LPS-stimulated RAW macrophages; assay type: cell-based; settings: 10 μM, 24 h
Experimental: as §2, §3

For `CC[Si](CC)(CC)Oc1cc(/C=C/c2ccc(O)cc2)cc(O[Si](CC)(CC)CC)c1` [compound 9], the “AChE activity relative to control (neuroprotective effect)” value (“AChE activity relative to control” for short) (zebrafish (Danio rerio)) was “significantly prevent the decrease in AChE activity induced by PTZ”.
For `CCCCCCCC(=O)OCC1OC(Oc2ccc(/C=C/c3cc(O[Si](C(C)C)(C(C)C)C(C)C)cc(O[Si](C(C)C)(C(C)C)C(C)C)c3)cc2)C(O)C(O)C1O` (stereo not drawn) [compound 15, 3,5-O-ditriisopropylsilyl-4′-(6-octanoyl)glucosyl resveratrol], the “severity of the motor lesions (motor capacity)” value [1] was “decreasing the severity of the motor lesions”, the “weight of the animals” value [1] was “increasing the weight of the animals” and the “levels of pro-inflammatory cytokines such as IL-6” value ([1]; plasma) was “decreasing”. For the same compound, the “AChE activity relative to control” value (zebrafish (Danio rerio)) was “significantly prevent the decrease in AChE activity induced by PTZ”, the “effectiveness relative to RES on a molar dose basis” value ([2]; 20 mg/kg each, dose of RES in μmol/kg about 3× dose of compound 15) was “much more effective” and the motor capacity [2] was “does not have a great effect on motor capacity”. The “clinical classification of the motor capacity” value ([2]; therapeutic regimen) was “improves the clinical classification of the motor capacity of the mice compared to the control” and the “clinical classification of the motor capacity after end of administration” value ([2]; therapeutic regimen, days 30-47, administration interrupted) was “improvement in the clinical classification was maintained”.
For `CCCC(=O)Oc1ccc(/C=C/c2cc(O[Si](CC)(CC)CC)cc(O[Si](CC)(CC)CC)c2)cc1` [compound 17, 3,5-O-triethylsilyl-4′-butanoyl resveratrol], the “AChE activity relative to control” value (zebrafish (Danio rerio)) was “lower neuroprotective effect similar to that observed for resveratrol”.
In the case of `Oc1ccc(C=Cc2cc(O)cc(O)c2)cc1` [RES, resveratrol], the cell viability recovered (RAW 264.7 macrophages) is reported as “up to 62%”, the “improvement of the phenotype caused by 3NP, compared with compound 15” value [1] is reported as “differences between compound 15 and RES are not great” and the cell viability recovered [3] is reported as “up to 50%”. The “AChE activity relative to control” value (zebrafish (Danio rerio)) was “lower neuroprotective effect”, the “IL-6 level in culture medium” value (IL-6) was “significantly decreases” and the “TNF-α level in culture medium” value (TNF-α) was “significantly decreases”. For the same compound, the “NO level in culture medium” value (NO) was “significantly decreases”, the motor capacity [2] was “does reduce damage on a motor level” and the “clinical classification of the motor capacity” value ([2]; therapeutic regimen) was “do not appear to improve”.
In the case of `CC[Si](CC)(CC)Oc1ccc(/C=C/c2cc(O)cc(O[Si](CC)(CC)CC)c2)cc1` [compound 8], the “AChE activity relative to control” value (zebrafish (Danio rerio)) is reported as “lower neuroprotective effect similar to that observed for resveratrol”.
In the case of `CCCCCCCC(=O)OCC1OC(Oc2cc(/C=C/c3ccc(O[Si](C(C)C)(C(C)C)C(C)C)cc3)cc(O[Si](C(C)C)(C(C)C)C(C)C)c2)C(O)C(O)C1O` (stereo not drawn) [compound 14, 3,4′-O-ditriisopropylsilyl-5-(-6-octanoyl)glucosyl resveratrol], the “AChE activity relative to control” value (zebrafish (Danio rerio)) is reported as “lower neuroprotective effect similar to that observed for resveratrol”.

Reference: patent US11365208B2, “Silylated derivatives of resveratrol and the use thereof in neurodegenerative, neurological or inflammatory diseases” (Consejo Superior De Investigaciones Cientificas, priority 2016, dated 2022)
